This is an account of results in PubChem BioAssay (NCI).

What all share (test): NCI tumour cell line growth inhibition, 48 h
The test system of test [1] is A549 NSCLC.
The test system of test [2] is OVCAR-8 ovarian.
Test [3] deals with SF-268 CNS.
In test [4] the test system is SF-539 CNS.
The subject of test [5] is SF-295 CNS.
Test [6] relates to ACHN renal.
For test [7], the system named is SK-MEL-2 melanoma.
In test [8] the test system is NCI/ADR-RES ovarian.
For test [9], the system named is OVCAR-3 ovarian.
Test [10] relates to NCI-H226 lung.
For test [11], the system named is HT29 colon.
Test [12] concerns SNB-75 CNS.
The subject of test [13] is T-47D breast.
For test [14], the system named is NCI-H23 lung.
Test [15] deals with COLO 205 colon.
Test [16] relates to 786-0 renal.
For test [17], the system named is OVCAR-4 ovarian.
Test [18] deals with SNB-19 CNS.
Test [19] has as its system MDA-MB-435.
Test [20] deals with SK-OV-3 ovarian.

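Interpolation was linear, between the two tested concentrations surrounding the appropriate level; five concentrations were tested over 48 hours in 96-well plates. TGI denotes the concentration required for complete inhibition of growth.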 *1 amine or outer side, *2 acyl side, *3 side chain or, on linkers, in order; H or OH if unused. Where a SMILES comes first, the peptide text is derived from it. Bridges are numbered along the chain shown (N, C = ends). [ ]: non-standard residue; d: D form. The star is where a group is joined. X38 = CC[C@H](C)[C@@H](N[*:1])[C@@H](O)CC(=O)[*:2]; NMeY = CN[C@@H](Cc1ccc(O)cc1)C(=O)O; dNMeL = CN[C@H](CC(C)C)C(=O)O; Hiv = CC(C)[C@H](O)C(=O)O; Pyruvoyl = CC(=O)C(=O)* Some results are limits rather than exact numbers.

`Fc1cc(C2=C[C@H](c3ccc(Cl)cc3)NC(=S)N2)c(Cl)cc1Cl`: the TGI in [1], in test [2], in test [3], in test [4], in test [5] and in test [6] was above 100 µM each time. The TGI in test [7] is 96.2 µM; in [8], above 100 µM; in test [9], above 100 µM; in test [10] it was above 100 µM; in [11] it was above 100 µM; in test [12], above 100 µM. Moreover, the TGI in test [13], in [14], in test [15], in [16], in [17] and in test [18] was above 100 µM throughout. Further, the TGI in [19] and in [20] was above 100 µM each time.
`O=C(NC(C(F)(F)F)(C(F)(F)F)P(=O)(c1ccccc1)c1ccccc1)C(C(F)(F)F)C(F)(F)F`: the TGI in test [1] was above 100 µM; in test [2], 72.8 µM; in test [3] it was above 100 µM; in test [4], 52.1 µM; in [5], above 100 µM; in test [6], 30.9 µM. In addition, the TGI in test [7] is above 100 µM; in test [8], 47.9 µM; in test [9], 69.7 µM; in test [10], above 100 µM; in test [11], 56 µM; in [12], 91.3 µM. Also, the TGI in [13] was above 100 µM; in [14], 64.2 µM; in [15], 37.4 µM; in test [16], 47.8 µM; in test [17] it was above 100 µM; in test [18] it was above 100 µM. Besides, the TGI in test [19] was 37.7 µM; in [20], above 100 µM.
As for `CCCCc1ccc(Nc2nc(Cl)c3c(ncn3COCCOC(C)=O)n2)cc1`, the TGI in [1] was determined as 41 µM; in test [2], 33.6 µM; in test [3], 38.5 µM; in test [4], 53.4 µM; in [5], 28.2 µM; in test [6], 35.8 µM. Further, the TGI in test [7] was 39.2 µM; in test [8] it was 41.2 µM; in [9], 43.8 µM; in [10], 40.6 µM; in test [11], 34.9 µM; in test [12] it was 16.5 µM. Further, the TGI in [13] is 34.6 µM; in test [14] it was 35.6 µM; in test [15], 45.5 µM; in test [16], 36.9 µM; in test [17], 66.6 µM; in test [18] it was 46.1 µM. The TGI stood at 32.9 µM in test [19] and 42.9 µM in test [20].
With `CC[C@H](C)[C@H]1NC(=O)[C@@H](NC(=O)[C@@H](CC(C)C)N(C)C(=O)[C@@H]2CCCN2C(=O)C(C)=O)[C@@H](C)OC(=O)[C@H](Cc2ccc(OC)cc2)N(C)C(=O)[C@@H]2CCCN2C(=O)[C@H](CC(C)C)NC(=O)[C@H](C(C)C)OC(=O)C[C@@H]1O` (Pyruvoyl-P[dNMeL]T[X38][Hiv]LP[NMeY](Me); ester 3-C), the TGI was determined as 0.0618 µM in [1]; 0.342 µM in [2]; 0.0983 µM in [3]; 0.0101 µM in test [4]; 0.525 µM in test [5]; 0.438 µM in [6]. Moreover, the TGI in test [7] is 0.0255 µM; in test [8], 4.77 µM; in [9], 0.0532 µM; in test [10] it was 0.0331 µM; in test [11] it was 0.0795 µM; in [12], 0.0101 µM. Moreover, the TGI in [13] came to 0.0113 µM; in test [14], 0.0421 µM; in test [15] it was 0.00621 µM; in test [16] it was 0.0397 µM; in test [17] it was 0.351 µM; in test [18], 0.721 µM. For the same molecule, the TGI in test [19] is 0.158 µM; in [20], 0.294 µM.
`Cc1nn2c(=O)c([N+](=O)[O-])c(/C=C/c3ccccc3)nc2s1`: the TGI in test [1] was above 79.1 µM; in [2], 5.26 µM; in test [3] it was above 100 µM; in test [4], 5.89 µM; in [5] it was above 100 µM; in test [6], 74.9 µM. In addition, the TGI is 12.4 µM in test [7]; above 53 µM in [8]; 26.5 µM in test [9]; 21.1 µM in [10]; 7.83 µM in [11]; 20.3 µM in [12]. In addition, the TGI in test [13] is above 100 µM; in test [14], above 100 µM; in [15], 28.8 µM; in test [16], above 100 µM; in [17] it was above 100 µM; in test [18], above 90.8 µM. Also, the TGI in test [19] was 5.06 µM; in test [20], above 40.5 µM.
Turning to `Oc1ccccc1/C=N/Nc1nnc2c3ccccc3c3ccccc3c2n1`, the TGI in [1], in test [2], in test [3], in [4], in test [5] and in test [6] was above 100 µM throughout. For the same molecule, the TGI is above 100 µM in [7]; above 100 µM in [8]; 44.2 µM in test [9]; above 100 µM in test [10]; above 100 µM in test [11]; 84.4 µM in test [12]. For the same molecule, the TGI in test [13], in test [14], in test [15], in test [16], in test [17] and in test [18] was above 100 µM throughout. Moreover, the TGI in test [19] and in test [20] was above 100 µM each time.
As to `C[C@@]12C=CC3C/C(=N\C(N)=S)C=C(CCCC4OCCO4)[C@]3(CC1)C2` (stereo not given in full), the TGI in [1] was determined as 59.7 µM; in test [2] it was 68.1 µM; in test [3], 87.8 µM; in [4], 31.7 µM; in test [5], 88 µM; in test [6] it was 92.2 µM. The TGI amounted to 30.6 µM in [7]; 54.3 µM in test [8]; 39.3 µM in [9]; 55 µM in [10]; 25.4 µM in [11]; 66.3 µM in [12]. Moreover, the TGI in test [13] is 57.9 µM; in test [14] it was 58.5 µM; in [15], 26 µM; in test [16], 57.1 µM; in test [17], 99.2 µM; in test [18] it was above 100 µM. Also, the TGI in test [19] is 45.5 µM; in test [20], above 100 µM.
